Data on 13 compounds can be found in US8921410B2, “Nicotinic acetylcholine receptor sub-type selective amides of diazabicycloalkanes” (Targacept, Inc., priority 2006, dated 2014).

Structures are written as SMILES. Read-outs that look alike come from different tables or passages of the source.

In one experiment the target is rat α4β2 nAChR subtype (Rattus norvegicus (Rat), UniProt P09483+P12390). As to the kind of experiment: Radioligand ([3H]nicotine) binding at α4β2 nAChR, rat cortex membranes. Particulars: [3H]nicotine 5 nM, rat cortex membranes. The method, then:
Preparation of Membranes from Rat Cortex:
(§1) Rats (female, Sprague-Dawley), weighing 150-250 g, were maintained on a 12 h light/dark cycle and were allowed free access to water and food supplied by PMI Nutrition International, Inc. Animals were anesthetized with 70% CO2, and then decapitated. Brains were removed and placed on an ice-cold platform. […] The homogenate was centrifuged at 18,000×g for 20 min at 4° C. and the resulting pellet was re-suspended in 20 volumes of ice-cold water. After 60 min incubation on ice, a new pellet was collected by centrifugation at 18,000×g for 20 min at 4° C. The final pellet was re-suspended in 10 volumes of buffer and stored at −20° C.
(§2) On the day of the assay, the frozen membranes were thawed and spun at 48,000×g for 20 min. The supernatant was decanted and discarded. The pellet was resuspended in Dulbecco's phosphate buffered saline (PBS, Life Technologies) pH 7.4 and homogenized with the Polytron for 6 seconds. Protein concentrations were determined using a Pierce BCA Protein Assay Kit, with bovine serum albumin as the standard (Pierce Chemical Company, Rockford, Ill.).
(§3) Tissue was rinsed 3 times in PBS, pH 7.4. Scintillation fluid was added to filters containing the washed tissue and allowed to equilibrate.
(§4) Data were expressed as disintegrations per minute (DPMs). Within each assay, each point had 2-3 replicates. The replicates for each point were averaged and plotted against the log of the drug concentration.

A further experiment has as its target α7 nAChR subtype (Rattus norvegicus (Rat), UniProt Q05941). Nature of the experiment: Radioligand ([3H]MLA) binding at α7 nAChR, rat hippocampus membranes. As for the experimental part:
as §1, with “CO2,” for “CO2, and”, “in 10” for “in 20”
The binding of [^3H]MLA was measured using a modification of the methods of Davies et al., Neuropharmacol. […] [^3H]MLA (Specific Activity=25-35 Ci/mmol) was obtained from Tocris. The binding of [^3H]MLA was determined using a 2 h incubation at 21° C. Incubations were conducted in 48-well micro-titre plates and contained about 200 μg of protein per well in a final incubation volume of 300 μL. The incubation buffer was PBS and the final concentration of [^3H]MLA was 5 nM. The binding reaction was terminated by filtration of the protein containing bound ligand onto glass fiber filters (GF/B, Brandel) using a Brandel Tissue Harvester at room temperature. […] Each filter was washed with PBS (3×1 mL) at room temperature. Non-specific binding was determined by inclusion of 50 μM non-radioactive MLA in selected wells.
The inhibition of [^3H]MLA binding by test compounds was determined by including seven different concentrations of the test compound in selected wells. Each concentration was replicated in triplicate. IC50 values were estimated as the concentration of compound that inhibited 50 percent of specific [^3H]MLA binding.

In a further experiment the target is human α4β2 nAChR subtype (Homo sapiens (Human), UniProt P17787+P43681). As to the kind of experiment: Radioligand ([3H]nicotine) binding at α4β2 nAChR, SH-EP1/human α4β2 clonal cell membranes. The method, then: Preparation of Membranes from SH-EP1/Human α4β2 Clonal Cells:
Cell pellets from 40 150 mm culture dishes were pooled, and homogenized by Polytron (Kinematica GmbH, Switzerland) in 20 milliliters of ice-cold preparative buffer. The homogenate was centrifuged at 48,000 g for 20 minutes at 4° C. The resulting pellet was re-suspended in 20 mL of ice-cold preparative buffer and stored at −20° C.
as §2, §3, §4

In experiment [1] the test system is object recognition in rats. Nature of the experiment: Novel object recognition (NOR) task. Particulars: oral. Type of experiment: in vivo, rat. As for the experimental part: The novel object recognition (NOR) task was performed in accord with the description of Ennaceur and Delacour Behav. Brain Res. 100: 85-92 (1988).
[2] abbreviates: [3H]MLA 5 nM, rat hippocampus membranes.
The mark [3] stands for this setting: [3H]nicotine 5 nM, SH-EP1/human α4β2 membranes, read-out: Human α4β2 Ki.
Setting [4] is: did not bind sufficiently in HTS at α7 to warrant Ki determination.

Chain of α7 nAChR subtype (Q05941 23-502): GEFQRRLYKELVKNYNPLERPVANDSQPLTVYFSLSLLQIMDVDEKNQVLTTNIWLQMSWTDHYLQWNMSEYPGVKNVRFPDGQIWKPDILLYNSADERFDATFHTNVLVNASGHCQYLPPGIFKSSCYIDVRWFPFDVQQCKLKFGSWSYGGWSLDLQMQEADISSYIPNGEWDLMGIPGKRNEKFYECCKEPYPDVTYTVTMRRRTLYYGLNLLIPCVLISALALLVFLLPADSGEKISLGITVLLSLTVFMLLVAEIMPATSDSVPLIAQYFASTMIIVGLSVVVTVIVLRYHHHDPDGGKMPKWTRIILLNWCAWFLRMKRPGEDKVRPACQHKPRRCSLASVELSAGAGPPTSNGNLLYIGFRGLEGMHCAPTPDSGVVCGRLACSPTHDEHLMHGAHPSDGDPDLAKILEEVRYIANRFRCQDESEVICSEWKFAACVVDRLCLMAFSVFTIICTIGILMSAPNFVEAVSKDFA
Chain of rat α4β2 nAChR subtype (P09483 31-630): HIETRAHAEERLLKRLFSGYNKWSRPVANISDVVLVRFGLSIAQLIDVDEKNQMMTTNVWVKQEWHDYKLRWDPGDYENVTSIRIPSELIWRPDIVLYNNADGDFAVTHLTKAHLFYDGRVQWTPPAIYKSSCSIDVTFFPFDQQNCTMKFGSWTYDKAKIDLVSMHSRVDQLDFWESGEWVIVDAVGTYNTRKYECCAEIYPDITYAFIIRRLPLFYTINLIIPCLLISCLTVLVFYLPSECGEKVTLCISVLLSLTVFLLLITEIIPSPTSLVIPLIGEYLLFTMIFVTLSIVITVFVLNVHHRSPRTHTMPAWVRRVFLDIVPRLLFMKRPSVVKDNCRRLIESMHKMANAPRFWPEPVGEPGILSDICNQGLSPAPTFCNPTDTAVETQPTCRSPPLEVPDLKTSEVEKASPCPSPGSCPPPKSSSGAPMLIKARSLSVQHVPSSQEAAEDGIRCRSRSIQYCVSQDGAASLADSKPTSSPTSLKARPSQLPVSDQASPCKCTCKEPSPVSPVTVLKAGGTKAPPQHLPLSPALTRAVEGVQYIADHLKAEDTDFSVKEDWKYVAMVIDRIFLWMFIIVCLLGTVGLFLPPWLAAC
Chain of rat α4β2 nAChR subtype (P12390 25-500): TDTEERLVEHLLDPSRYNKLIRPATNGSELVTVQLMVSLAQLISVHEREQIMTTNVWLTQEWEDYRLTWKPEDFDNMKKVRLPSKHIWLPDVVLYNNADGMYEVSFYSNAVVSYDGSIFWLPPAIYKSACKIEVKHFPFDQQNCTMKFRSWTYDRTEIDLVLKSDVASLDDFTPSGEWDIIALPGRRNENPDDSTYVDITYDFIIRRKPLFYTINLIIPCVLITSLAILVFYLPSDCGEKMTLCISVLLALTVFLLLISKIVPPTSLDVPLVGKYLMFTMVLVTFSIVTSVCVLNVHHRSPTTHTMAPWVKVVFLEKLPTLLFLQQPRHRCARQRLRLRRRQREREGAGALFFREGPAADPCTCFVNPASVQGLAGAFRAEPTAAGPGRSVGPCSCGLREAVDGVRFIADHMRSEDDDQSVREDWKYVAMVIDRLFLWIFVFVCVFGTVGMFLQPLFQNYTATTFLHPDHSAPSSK
Chain of human α4β2 nAChR subtype (P43681 29-627): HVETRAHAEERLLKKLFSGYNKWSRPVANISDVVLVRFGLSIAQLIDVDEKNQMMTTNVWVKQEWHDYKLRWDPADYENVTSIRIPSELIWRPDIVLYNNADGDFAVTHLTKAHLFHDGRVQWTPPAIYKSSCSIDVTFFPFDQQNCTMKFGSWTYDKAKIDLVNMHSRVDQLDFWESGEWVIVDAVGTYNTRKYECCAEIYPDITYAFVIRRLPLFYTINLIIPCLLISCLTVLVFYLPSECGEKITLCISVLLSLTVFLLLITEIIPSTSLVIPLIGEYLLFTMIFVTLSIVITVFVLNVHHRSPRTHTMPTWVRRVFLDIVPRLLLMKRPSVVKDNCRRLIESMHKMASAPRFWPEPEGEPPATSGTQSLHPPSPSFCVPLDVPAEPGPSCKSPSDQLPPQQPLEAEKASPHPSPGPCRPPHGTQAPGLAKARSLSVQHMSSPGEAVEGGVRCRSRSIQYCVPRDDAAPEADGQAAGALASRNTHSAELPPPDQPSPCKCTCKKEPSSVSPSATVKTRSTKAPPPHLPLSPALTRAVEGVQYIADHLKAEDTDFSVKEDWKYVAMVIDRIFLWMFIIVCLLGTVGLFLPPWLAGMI
Chain of human α4β2 nAChR subtype (P17787 26-502): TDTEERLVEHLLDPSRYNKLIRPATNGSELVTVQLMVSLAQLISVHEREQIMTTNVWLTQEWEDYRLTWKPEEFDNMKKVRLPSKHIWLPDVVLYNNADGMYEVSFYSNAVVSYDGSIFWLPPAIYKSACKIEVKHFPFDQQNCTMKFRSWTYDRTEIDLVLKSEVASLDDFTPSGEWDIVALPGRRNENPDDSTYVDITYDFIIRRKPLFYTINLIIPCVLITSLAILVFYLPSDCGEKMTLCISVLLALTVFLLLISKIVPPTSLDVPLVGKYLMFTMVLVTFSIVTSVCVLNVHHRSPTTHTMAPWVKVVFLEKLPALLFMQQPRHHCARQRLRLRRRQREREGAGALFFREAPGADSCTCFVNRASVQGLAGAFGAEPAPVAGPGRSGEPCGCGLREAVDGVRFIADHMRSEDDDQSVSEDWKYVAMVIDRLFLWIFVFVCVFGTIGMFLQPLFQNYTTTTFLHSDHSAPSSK

As to `O=C(c1ccncc1)N1CC2CNCC(C2)C1`, the Ki (commonly the dissociation constant of the complex between target and ligand, obtained from inhibition or displacement) turned out to be 0.11 µM on rat α4β2 nAChR subtype, 1.7 µM on α7 nAChR subtype (setting [2]) and 0.018 µM at human α4β2 nAChR subtype (setting [3]).

In the case of `O=C(c1cc(F)co1)N1CC2CNCC(C2)C1`, the Ki turned out to be 0.028 µM on rat α4β2 nAChR subtype and 0.014 µM at human α4β2 nAChR subtype (setting [3]). Also, at α7 nAChR subtype (setting [4]), the “α7 high through-put screening outcome (Ki not determined)” value was “ND; failed HTS”.

For `C#Cc1ccc(C(=O)N2CC3CNCC(C3)C2)o1`, the inhibition constant Ki at rat α4β2 nAChR subtype came out at 0.22 µM; on human α4β2 nAChR subtype (setting [3]), 0.047 µM. The “α7 high through-put screening outcome (Ki not determined)” value at α7 nAChR subtype (setting [4]) was “ND; failed HTS”.

`Cc1cc(F)c(C(=O)N2CC3CNCC(C3)C2)o1`: the Ki was determined as 0.5 µM at rat α4β2 nAChR subtype and 0.062 µM on human α4β2 nAChR subtype (setting [3]). The “α7 high through-put screening outcome (Ki not determined)” value on α7 nAChR subtype (setting [4]) was “ND; failed HTS”.

For `O=C(c1ncco1)N1CC2CNCC(C2)C1`, the inhibition constant (Ki) at rat α4β2 nAChR subtype came out at 0.37 µM; on human α4β2 nAChR subtype (setting [3]), 0.085 µM. The “α7 high through-put screening outcome (Ki not determined)” value at α7 nAChR subtype (setting [4]) was “ND; failed HTS”.

On to `N#Cc1coc(C(=O)N2CC3CNCC(C3)C2)c1`, for which the values for the Ki at rat α4β2 nAChR subtype and at human α4β2 nAChR subtype were 0.027 µM and 0.023 µM, respectively. Besides, the “α7 high through-put screening outcome (Ki not determined)” value at α7 nAChR subtype (setting [4]) was “ND; failed HTS”.

With `O=C(c1cc(Br)co1)N1CC2CNCC(C2)C1`, the Ki was 0.012 µM at rat α4β2 nAChR subtype and 0.0017 µM at human α4β2 nAChR subtype (read-out: Human α4β2 Ki). Also, the “α7 high through-put screening outcome (Ki not determined)” value on α7 nAChR subtype is “ND; failed HTS”.

As for `Cc1oncc1C(=O)N1CC2CNCC(C2)C1`, the Ki is 0.065 µM on rat α4β2 nAChR subtype and 0.031 µM on human α4β2 nAChR subtype (read-out: Human α4β2 Ki). Further, the “α7 high through-put screening outcome (Ki not determined)” value at α7 nAChR subtype (setting [4]) is on record as “ND; failed HTS”.

Regarding `O=C(c1ccno1)N1CC2CNCC(C2)C1`, the Ki stood at 0.052 µM at rat α4β2 nAChR subtype and 0.03 µM at human α4β2 nAChR subtype (setting [3]). Besides, the “α7 high through-put screening outcome (Ki not determined)” value on α7 nAChR subtype (setting [4]) is reported as “ND; failed HTS”.

Regarding `O=C(c1ccc(Cl)o1)N1CC2CNCC2C1` (centres unmarked) [N-(5-chlorofuran-2-ylcarbonyl)-3,7-diazabicyclo[3.3.0]octane], the Ki at rat α4β2 nAChR subtype was 0.033 µM; on α7 nAChR subtype (setting [2]) it was 91 µM; on human α4β2 nAChR subtype (setting [3]) it was 0.028 µM. The “activity in object recognition (OR)” value in experiment [1] (0.1 mg/kg (FIG. 1)) is “active”.

Turning to `O=C(c1ccc(Cl)o1)N1CC2CNCC(C2)C1` [N-(5-chlorofuran-2-ylcarbonyl)-3,7-diazabicyclo[3.3.1]nonane], the figures for the Ki at rat α4β2 nAChR subtype, at α7 nAChR subtype (setting [2]) and at human α4β2 nAChR subtype (setting [3]) were 0.015 µM, 120 µM and 0.0073 µM, respectively. For the same compound, the “activity in object recognition (OR)” value in experiment [1] (0.3 mg/kg (FIG. 2)) is on record as “active”.

As to `O=C(c1ccco1)N1CC2CNCC2C1` (centres unmarked) [N-(furan-2-ylcarbonyl)-3,7-diazabicyclo[3.3.0]octane], the Ki was found to be 0.02 µM on rat α4β2 nAChR subtype, 13 µM on α7 nAChR subtype (setting [2]) and 0.033 µM on human α4β2 nAChR subtype (setting [3]).

As for `O=C(c1ccco1)N1CC2CNCC(C2)C1` [N-(furan-2-ylcarbonyl)-3,7-diazabicyclo[3.3.1]nonane], the Ki on rat α4β2 nAChR subtype came out at 0.031 µM; on α7 nAChR subtype it was 15 µM; at human α4β2 nAChR subtype (setting [3]), 0.0099 µM.
